According to patent publication US20240043435A1, “TYK-2 INHIBITOR” (BEIGENE, LTD., priority 2020, published 2024):

What was measured:
pSTAT5/GM-CSF = pSTAT5/GM-CSF cellular assay (JAK2 selectivity); format: cell-based; conditions: for Selectivity fold (TYK2/JAK2): pSTAT5/GM-CSF IC50 over pSTAT4/IL-12 IC50
[1] = biological target: T1, TYK2-JH2 (aa 575-869, in-house) protein (Homo sapiens, UniProt P29597); assay: TYK2-JH2 biochemical assay (HTRF probe displacement); format: binding; conditions: Biochemical assay; read-out: TYK2-JH2 IC50
T1 construct: TYK2-JH2 (aa 575-869, in-house) protein; made in house
T1 sequence (P29597 575-869): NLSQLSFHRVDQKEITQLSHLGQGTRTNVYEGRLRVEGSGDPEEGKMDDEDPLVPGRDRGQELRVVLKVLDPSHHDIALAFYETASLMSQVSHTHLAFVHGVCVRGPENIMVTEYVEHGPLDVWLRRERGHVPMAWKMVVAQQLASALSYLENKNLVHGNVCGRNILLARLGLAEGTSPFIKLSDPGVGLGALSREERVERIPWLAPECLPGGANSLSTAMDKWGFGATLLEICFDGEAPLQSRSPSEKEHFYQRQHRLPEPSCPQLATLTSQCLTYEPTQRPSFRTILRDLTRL
Method in brief: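 Recombinant TYK2-JH2 (0.2 nM) was pre-incubated 0.5 h at room temperature with compounds (10 doses, 5-fold dilution; 500× DMSO stocks from 500 uM) in 20 mM HEPES pH 7.5, 10 mM MgCl2, 0.005% BSA, 2 mM DTT, 0.015% Brij-35. Probe displacement was read by HTRF (ex337, em620/665 nm); IC50 from four-parameter logistic fit.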

[2] = tested on: JAK2, TYK2/p-STAT4 (Tyr693) activated by IL-12 in NK-92 cell line; assay: IL-12-JAK2, TYK2/p-STAT4 (Tyr693) inhibition IC50 cellular assay; format: cell-based; conditions: NK92, Cellular assay; read-out: pSTAT4/IL-12 IC50
Method in brief: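 NK-92 cells were starved overnight without IL-2 and preincubated 1 h at 37° C with compound (8 doses, 10000–0.61 nM, 4-fold, 0.2% DMSO). They were then stimulated with IL-12 (40 ng/ml final) for 30 min. Lysate p-STAT4 (Tyr693) was read by AlphaLISA SureFire; IC50 from four-parameter logistic fit.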

Row | SMILES | IC50 (pSTAT5/GM-CSF) | IC50 [1] | IC50 [2] | Selectivity fold (TYK2/JAK2) (pSTAT5/GM-CSF)
1 | CC(=O)Nc1cc(Nc2cncc(S(C)(=O)=O)n2)c(-c2ccc3c(n2)OC(C)(C)CO3)cn1 [Example Q28, N-(5-(3,3-dimethyl-2,3-dihydro-[1,4]dioxino[2,3-b]pyridine-6-yl)-4-((6-(methylsulfonyl)pyrazin-2-yl)amino)pyridine-2-yl)acetamide] | > 10000 nM | 0.026 nM | 0.329 nM | >30395 fold
2 | COC1CCN(c2cc(Nc3cc(NC(C)=O)ncc3-c3ccc4c(n3)OCC(C)(C)O4)nc(S(C)(=O)=O)c2)CC1 [Example Q52, N-(5-(2,2-dimethyl-2,3-dihydro-[1,4]dioxino[2,3-b]pyridin-6-yl)-4-((4-(4-methoxypiperidin-1-yl)-6-(methylsulfonyl)pyridin-2-yl)amino)pyridin-2-yl)acetamide] | 3420 nM | 0.038 nM | 1.33 nM | 2571 fold
3 | CO[C@H]1C[C@@H](c2cc(Nc3cc(NC(C)=O)ncc3-c3ccc4c(n3)OCC(C)(C)O4)nc(S(C)(=O)=O)c2)C1 [Example Q53, N-(5-(2,2-dimethyl-2,3-dihydro-[1,4]dioxino[2,3-b]pyridin-6-yl)-4-((4-((cis)-3-methoxycyclobutyl)-6-(methylsulfonyl)pyridin-2-yl)amino)pyridin-2-yl)acetamide] | > 10000 nM | 0.047 nM | 0.581 nM | >17211 fold
4 | CO[C@H]1C[C@H](c2cc(Nc3cc(NC(C)=O)ncc3-c3ccc4c(n3)OCC(C)(C)O4)nc(S(C)(=O)=O)c2)C1 [Example Q54] | 3980 nM | 0.037 nM | 0.56 nM | 7116 fold
5 | CC(=O)Nc1cc(Nc2cc(-c3cnccc3C)cc(S(C)(=O)=O)n2)c(-c2ccc3c(n2)OCC(C)(C)O3)cn1 [Example Q62, N-(5-(2,2-dimethyl-2,3-dihydro-[1,4]dioxino[2,3-b]pyridin-6-yl)-4-((4-methyl-6′-(methylsulfonyl)-[3,4′-bipyridin]-2′-yl)amino)pyridin-2-yl)acetamide] | > 10000 nM | 0.047 nM | 1.79 nM | >5586 fold
6 | CC(=O)Nc1cc(Nc2nc(S(C)(=O)=O)cn(C)c2=O)c(-c2ccc3c(n2)OCC(C)(C)O3)cn1 [Example Q64, N-(5-(2,2-dimethyl-2,3-dihydro-[1,4]dioxino[2,3-b]pyridin-6-yl)-4-((4-methyl-6-(methylsulfonyl)-3-oxo-3,4-dihydropyrazin-2-yl)amino)pyridin-2-yl)acetamide] | > 10000 nM | 0.034 nM | 4.61 nM | >2169 fold
7 | CC(=O)Nc1cc(Nc2cc(OCC3(C)COC3)cc(S(C)(=O)=O)n2)c(-c2ccc3c(n2)OCC(C)(C)O3)cn1 [Example Q98, N-(5-(2,2-dimethyl-2,3-dihydro-[1,4]dioxino[2,3-b]pyridin-6-yl)-4-((4-((3-methyloxetan-3-yl)methoxy)-6-(methylsulfonyl)pyridin-2-yl)amino)pyridin-2-yl)acetamide] | > 10000 nM | 0.026 nM | 1.15 nM | >8695 fold

Molecules with a lower IC50 (pSTAT5/GM-CSF), results first:

Row | IC50 (pSTAT5/GM-CSF) | IC50 [1] | IC50 [2] | SMILES | Selectivity fold (TYK2/JAK2) (pSTAT5/GM-CSF)
8 | 3050 nM | 0.029 nM | 0.792 nM | CO[C@@H]1CCCN(c2cc(Nc3cc(NC(C)=O)ncc3-c3ccc4c(n3)OCC(C)(C)O4)nc(S(C)(=O)=O)c2)C1 [Example Q66, (R)-N-(5-(2,2-dimethyl-2,3-dihydro-[1,4]dioxino[2,3-b]pyridin-6-yl)-4-((4-(3-methoxypiperidin-1-yl)-6-(methylsulfonyl)pyridin-2-yl)amino)pyridin-2-yl)acetamide] | 3845 fold
9 | 2350 nM | 0.025 nM | 2.84 nM | COCC1CCN(c2cc(Nc3cc(NC(C)=O)ncc3-c3ccc4c(n3)OCC(C)(C)O4)nc(S(C)(=O)=O)c2)C1 (stereo not drawn) [Example Q73, N-(5-(2,2-dimethyl-2,3-dihydro-[1,4]dioxino[2,3-b]pyridin-6-yl)-4-((4-(3-(methoxymethyl)pyrrolidin-1-yl)-6-(methylsulfonyl)pyridin-2-yl)amino)pyridin-2-yl)acetamide] | 828 fold
10 | 1810 nM | 0.02 nM | 0.679 nM | CC(=O)Nc1cc(Nc2cc(N3CCOC[C@@H]3C)cc(S(C)(=O)=O)n2)c(-c2ccc3c(n2)OCC(C)(C)O3)cn1 [Example Q35, (S)—N-(5-(2,2-dimethyl-2,3-dihydro-[1,4]dioxino[2,3-b]pyridin-6-yl)-4-((4-(3-methyl-morpholino)-6-(methylsulfonyl)pyridin-2-yl)amino)-pyridin-2-yl)acetamide] | 2665 fold
11 | 1640 nM | 0.029 nM | 0.685 nM | CO[C@H]1CCCN(c2cc(Nc3cc(NC(C)=O)ncc3-c3ccc4c(n3)OCC(C)(C)O4)nc(S(C)(=O)=O)c2)C1 [Example Q65, (S)-N-(5-(2,2-dimethyl-2,3-dihydro-[1,4]dioxino[2,3-b]pyridin-6-yl)-4-((4-(3-methoxypiperidin-1-yl)-6-(methylsulfonyl)pyridin-2-yl)amino)pyridin-2-yl)acetamide] | 2397 fold
12 | 700 nM | 0.032 nM | 1.53 nM | COc1cc(S(C)(=O)=O)nc(Nc2cc(NC(C)=O)ncc2-c2ccc3c(n2)OCC(C)(C)O3)c1OC [Example Q26, N-(4-((3,4-dimethoxy-6-(methylsulfonyl)pyridin-2-yl)amino)-5-(2,2-dimethyl-2,3-dihydro-[1,4]dioxino[2,3-b]pyridin-6-yl)pyridin-2-yl)acetamide] | 457 fold
13 | 473 nM | 0.024 nM | 0.637 nM | CC(=O)Nc1cc(Nc2cc(C3CCCOC3)cc(S(C)(=O)=O)n2)c(-c2ccc3c(n2)OCC(C)(C)O3)cn1 (stereo not drawn) [Example Q75, N-(5-(2,2-dimethyl-2,3-dihydro-[1,4]dioxino[2,3-b]pyridin-6-yl)-4-((6-(methylsulfonyl)-4-(tetrahydro-2H-pyran-3-yl)pyridin-2-yl)amino)pyridin-2-yl)acetamide] | 742 fold
14 | 459 nM | 0.051 nM | 0.755 nM | CC(=O)Nc1cc(Nc2cc(C#N)cc(S(C)(=O)=O)n2)c(-c2ccc3c(n2)OCC(C)(C)O3)cn1 [Example Q63, N-(4-((4-cyano-6-(methylsulfonyl)pyridin-2-yl)amino)-5-(2,2-dimethyl-2,3-dihydro-[1,4]dioxino[2,3-b]pyridin-6-yl)pyridin-2-yl)acetamide] | 608 fold
15 | 379 nM | 0.029 nM | 0.827 nM | COC1CN(c2cc(Nc3cc(NC(C)=O)ncc3-c3ccc4c(n3)OCC(C)(C)O4)nc(S(C)(=O)=O)c2)C1 [Example Q49, N-(5-(2,2-dimethyl-2,3-dihydro-[1,4]dioxino[2,3-b]pyridin-6-yl)-4-((4-(3-methoxyazetidin-1-yl)-6-(methylsulfonyl)pyridin-2-yl)amino)pyridin-2-yl)acetamide] | 458 fold
